Source: patent publication US20120083464A1, “NEUROPROTECTIVE PROPERTIES OF 5'-METHYLTHIOADENOSINE” (priority 2009, published 2012)
Entries after “also recorded” stand apart in the source; their conditions may differ.

Experiments:
[1] = test system: isolated optic nerve; assay: Simulated ischemia (OGD) in isolated optic nerves, LDH release; set-up: species or system Sprague Dawley rats; conditions: 1 h ischemia with iodoacetate + 2 h reperfusion; MTA 100-300 μM
Experimental: Ischemic damage was induced by substituting […] and adding 1 mM of the glyocolytic blocker iodoacetate (1 mM) for 1 h followed by 2 h of reperfusion in […] aCSF. Optic nerves during ischemia and reperfusion were incubated with vehicle, for controls, and with MTA or glutamate receptor antagonists, and subsequently processed for LDH release assay. The results are the mean±SEM of at least three different experiments performed in duplicate.
Cell viability in oligodendrocyte cultures was assayed after 24 h of exposure to MTA (1 μM to 3 mM) calcein-AM assays respectively followed by fluorimetry measurements (Synergy-HT). Oligodendrocyte protection from excitotoxicity and optic nerve damage after ischemia (1 hour+2 hours reperfusion) were examined using lactate dehydrogenase release assays in the presence or absence of MTA (100-300 μM for 3 hours).

[2] = test system: caspase 3 activity; assay: NMDA-mediated increase in caspase 3 activity in mixed neuronal-glial culture; type: cell-based, Sprague-Dawley rat; conditions: NMDA 300 μM, MTA 250 μM or MK-801 10 μM
Experimental: Primary cultures of brain cortical neurons and glia were essentially prepared as described previously (Bruno et al., 2001, Eur. J. Neurosci., 13:1469-1478). The fronto-lateral cortical lobes were dissected out of Sprague-Dawley embryonic day 17 foetuses and were mechanically dissociated in Hanks' balanced solution. The cortical lobes were triturated by aspirating 7-10 times using a Pasteur pipette with a flame-narrowed tip. […]
Cortical neurons or mixed cortical neurons and glia were plated on poly-L-lysine-coated 6-well culture plates and after 7 DIV, cells were treated with vehicle or NMDA (300 μM) for different periods of time. […] Extracts were then centrifuged at 5,000×g for 10 min at 4° C., and protein content was determined by using the BCA protein assay according to the manufacturer instructions. Cell extracts (40 μg of protein) were incubated in reaction buffer (25 mM Hepes, 10% sucrose, 0.1% CHAPS, 10 mM DTT) containing 50 μM fluorescence substrate Z-DEVD-AFC at 37° C. for 1 h. Cleavage of the AFC fluorophore was determined in a spectrofluorometer at excitation wavelength of 400 nm and fluorescence was detected at an emission wavelength of 505 nm. Caspase 3 activity was expressed as units of fluorescence/mg of protein/h (Posadas et al., 2009, Pharm. Res., In press).

| Compound | OGD/ischemia-induced damage in isolated optic nerve (LDH release) [1] | protection against NMDA-induced caspase 3 activity [2] |
| --- | --- | --- |
| N[C@H](CCCP(=O)(O)O)C(=O)O [APV, (2R)-amino-5-phosphonovaleric acid] | reduced; also recorded: attenuated | – |
| N#Cc1cc2c(cc1[N+](=O)[O-])=NC(=O)C(=O)N=2 [CNQX, 6-cyano-7-nitro-quinoxaline-2,3-dione] | reduced; also recorded: attenuated | – |
| C[C@]12N[C@H](Cc3ccccc31)c1ccccc12 [MK-801, reference compound] | – | neuroprotective action |
